Seven compounds from ChEMBL document CHEMBL1201862, “PubChem BioAssay data set” (2004) can be followed below.

Among the test systems are A498; A549; ACHN; CAKI-1; COLO 205; EKVX; HCC 2998; HOP-92; IGROV-1; MDA-MB-435; MOLT-4; NCI-H23; NCI/ADR-RES; OVCAR-3; OVCAR-5; PC-3; SF-268; SK-MEL-2; SW-620; UACC-62.
Test in all cases: inhibition of tumour cell growth, NCI panel, 48 h

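In this assay, cells in 96-well plates receive the compound at five concentrations for 48 hours. Endpoints are linearly interpolated between the surrounding concentrations. GI50 marks 50% less growth.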 Activity calls are given as the source filed them. Rule as the data show it: active = GI50 up to about 1.1 µM and inactive = higher.

With `O=c1c2c3c(sc2nc2n1N=CN(c1ccc(Cl)cc1)C2)CCCC3`, the GI50 with A498 is 4.12 µM (inactive); in the assay with A549 it was 38.4 µM (inactive); with ACHN, 75 µM (inactive); in the assay with CAKI-1, 23.8 µM (inactive); in the assay with COLO 205, 35.8 µM (inactive); with EKVX, 93.8 µM (inactive). Further, the GI50 with HCC 2998 is 2.26 µM (inactive); with HOP-92, 8.47 µM (inactive); in the assay with IGROV-1, > 100 µM (inactive); in the assay with MDA-MB-435 it was > 100 µM (inactive); in the assay on MOLT-4, 17.9 µM (inactive); with NCI-H23, > 100 µM (inactive). The GI50 is 74.8 µM (inactive) in the assay on NCI/ADR-RES; 19.4 µM (inactive) in the assay with OVCAR-3; > 100 µM (inactive) in the assay with OVCAR-5; 15.1 µM (inactive) with PC-3; 20.8 µM (inactive) in the assay on SF-268; 43.2 µM (inactive) in the assay on SK-MEL-2. In addition, the GI50 was > 100 µM (inactive) with SW-620 and 56.8 µM (inactive) in the assay on UACC-62.

On to `CC(C(=O)[O-])S(=O)(=O)O.CCc1c2cc(OC)c(OC)cc2cc2c3cc(OC)c(OC)cc3cc[n+]12`, for which the GI50 is 53.1 µM (inactive) in the assay with A498; 47.4 µM (inactive) in the assay with A549; 58.9 µM (inactive) in the assay on ACHN; 60.4 µM (inactive) with CAKI-1; 4.78 µM (inactive) in the assay on COLO 205; 67.6 µM (inactive) in the assay with EKVX. For the same compound, the GI50 is 15 µM (inactive) in the assay with HCC 2998; 29 µM (inactive) in the assay on HOP-92; 41.5 µM (inactive) in the assay with IGROV-1; 4.27 µM (inactive) in the assay with MDA-MB-435; 20.4 µM (inactive) in the assay with MOLT-4; 15.9 µM (inactive) with NCI-H23. The GI50 with NCI/ADR-RES was 38.1 µM (inactive); with OVCAR-3, 12.4 µM (inactive); in the assay with OVCAR-5, 58.7 µM (inactive); with PC-3, 17.9 µM (inactive); with SF-268, 1.11 µM (active); in the assay with SK-MEL-2 it was 25.6 µM (inactive). In addition, the GI50 with SW-620 is 26.5 µM (inactive); in the assay with UACC-62, 7.91 µM (inactive).

Regarding `O=C(CCCCCCCCC(=O)NN1C(=O)/C(=C\c2ccc(O)c(O)c2)SC1c1c(O)ccc2ccccc12)NN1C(=O)C(=Cc2ccc(O)c(O)c2)SC1c1c(O)ccc2ccccc12` (stereo not given), the GI50 in the assay with A498 is 22.8 µM (inactive); in the assay on A549 it was 6.95 µM (inactive); in the assay with ACHN, 4.8 µM (inactive); with CAKI-1, 6.01 µM (inactive); with COLO 205, 20.4 µM (inactive); in the assay on EKVX, 7.59 µM (inactive). Besides, the GI50 was 24.5 µM (inactive) in the assay with HCC 2998; 8.47 µM (inactive) in the assay on HOP-92; 8.51 µM (inactive) in the assay on IGROV-1; > 27.2 µM (inactive) with MDA-MB-435; 2.48 µM (inactive) in the assay on MOLT-4; 9.35 µM (inactive) in the assay with NCI-H23. The GI50 in the assay on NCI/ADR-RES is 10.6 µM (inactive); with OVCAR-3, 2.25 µM (inactive); with OVCAR-5, > 49.5 µM (inactive); in the assay on PC-3, 10.9 µM (inactive); with SF-268, 6.4 µM (inactive); in the assay on SK-MEL-2, 5.97 µM (inactive). The GI50 with SW-620 is 7.64 µM (inactive); with UACC-62, 4.74 µM (inactive).

`CCOC(=O)CCC(C(=O)OCC)n1nc2ccc(Nc3c(C)[n+]([O-])c4ccc(Cl)cc4[n+]3[O-])cc2n1` (stereo not given): the GI50 with A498 is 23.6 µM (inactive); in the assay with A549, 17.6 µM (inactive); with ACHN, 15.8 µM (inactive); in the assay with CAKI-1 it was 33.1 µM (inactive); with COLO 205, 32.7 µM (inactive); in the assay with EKVX, 17.5 µM (inactive). Moreover, the GI50 in the assay with HCC 2998 is 2.93 µM (inactive); with HOP-92, 20.9 µM (inactive); in the assay on IGROV-1, 42.4 µM (inactive); in the assay with MDA-MB-435, 30.2 µM (inactive); in the assay with MOLT-4, 27.9 µM (inactive); with NCI-H23, 21.5 µM (inactive). Moreover, the GI50 in the assay with NCI/ADR-RES was 18.8 µM (inactive); with OVCAR-3, 24.9 µM (inactive); in the assay with OVCAR-5, 30.9 µM (inactive); in the assay on PC-3 it was 26.5 µM (inactive); with SF-268 it was 12.2 µM (inactive); in the assay on SK-MEL-2, 20 µM (inactive). Moreover, the GI50 was 33.7 µM (inactive) in the assay with SW-620 and 26.6 µM (inactive) with UACC-62.

Consider `COc1ccc(/C=C2\N=C3N(Cc4ccccc4)C=C(N)N3C2=O)cc1`, for which the GI50 in the assay with A498 was 88.1 µM (inactive); with A549 it was > 100 µM (inactive); in the assay with ACHN it was > 100 µM (inactive); in the assay with CAKI-1 it was > 100 µM (inactive); with COLO 205 it was > 100 µM (inactive); in the assay with EKVX it was 59.4 µM (inactive). For the same compound, the GI50 with HCC 2998 was > 100 µM (inactive); in the assay with HOP-92, 58.7 µM (inactive); in the assay with IGROV-1 it was 69.3 µM (inactive); in the assay on MDA-MB-435, > 100 µM (inactive); with MOLT-4 it was > 100 µM (inactive); in the assay with NCI-H23, > 100 µM (inactive). Besides, the GI50 in the assay with NCI/ADR-RES was > 100 µM (inactive); in the assay on OVCAR-3, > 100 µM (inactive); in the assay with OVCAR-5, 82.8 µM (inactive); in the assay on PC-3 it was > 100 µM (inactive); in the assay on SF-268, > 100 µM (inactive); in the assay with SK-MEL-2, > 100 µM (inactive). The GI50 with SW-620 and with UACC-62 was > 100 µM (inactive) each time.

Turning to `C(=C/c1nnnn1-c1ccccc1)/Nc1ccccc1`, the GI50 was > 100 µM (inactive) in the assay on A498; 52.4 µM (inactive) in the assay on A549; 28.1 µM (inactive) with ACHN; 43 µM (inactive) with CAKI-1; 33.7 µM (inactive) with COLO 205; 40.6 µM (inactive) in the assay with EKVX. For the same compound, the GI50 is 21.7 µM (inactive) in the assay with HCC 2998; 24.4 µM (inactive) with HOP-92; 35.2 µM (inactive) in the assay on IGROV-1; 26.1 µM (inactive) with MDA-MB-435; 21.7 µM (inactive) in the assay with MOLT-4; 23.7 µM (inactive) in the assay with NCI-H23. Besides, the GI50 in the assay with NCI/ADR-RES was 24.6 µM (inactive); with OVCAR-3 it was 27.2 µM (inactive); with OVCAR-5, 24.8 µM (inactive); in the assay on PC-3, 27.2 µM (inactive); in the assay on SF-268, 31.7 µM (inactive); in the assay on SK-MEL-2, 2.64 µM (inactive). Moreover, the values for the GI50 in the assay on SW-620 and with UACC-62 were 37.3 µM (inactive) and 20.2 µM (inactive), respectively.

For `c1cnc(N2CCN(Cc3c[nH]c4ccccc34)CC2)nc1`, the GI50 is 28.7 µM (inactive) with A498; 80.4 µM (inactive) in the assay with A549; 27.8 µM (inactive) in the assay with ACHN; 28.2 µM (inactive) in the assay with CAKI-1; 25.4 µM (inactive) in the assay with COLO 205; 85.3 µM (inactive) in the assay on EKVX. Also, the GI50 was 18.6 µM (inactive) in the assay on HCC 2998; > 100 µM (inactive) with HOP-92; > 100 µM (inactive) with IGROV-1; 31 µM (inactive) with MDA-MB-435; 36.6 µM (inactive) with MOLT-4; 93.5 µM (inactive) in the assay on NCI-H23. For the same compound, the GI50 is 52.8 µM (inactive) with NCI/ADR-RES; 52.2 µM (inactive) in the assay with OVCAR-3; > 100 µM (inactive) with OVCAR-5; 23.5 µM (inactive) in the assay on PC-3; 74.5 µM (inactive) in the assay on SF-268; 13.3 µM (inactive) in the assay with SK-MEL-2. Besides, the GI50 with SW-620 is > 100 µM (inactive); in the assay with UACC-62 it was 45.4 µM (inactive).
